Results on 21 compounds are retold here after US20240199605A1, “SMALL MOLECULAR INHIBITORS OF NF-kB INDUCING KINASE” (Janssen Pharmaceutica NV, priority 2019, published 2024).

The IC50 is the point on the concentration scale where inhibition reaches its midpoint.

Bounds are passed on as bounds.

Experiment [1] addresses recombinant human NF-kappaB-inducing kinase (NIK/MAP3K14) (Homo sapiens (Human), UniProt Q99558). As to the kind of experiment: Inhibition of auto-phosphorylation of recombinant human NIK/MAP3K14 (AlphaScreen). The note with it: NIK auto-phosphorylation, 5 μM ATP, 1 nM NIK, 2 h at 25° C.; average of values. The format is biochemical. A digest of the protocol:
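GST-tagged NIK (1 nM) auto-phosphorylated with 5 μM ATP for 2 h at 25° C. in 50 mM Tris pH 7.5, 5 mM MgCl2, 1 mM EGTA, 1 mM DTT, 0.1 mM Na3VO4, 0.01% Tween 20 (0.7% DMSO). Detected by AlphaScreen via anti-phospho-IKK Ser176/180 antibody; IC50 from sigmoidal fit of % inhibition versus log concentration.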
(Bead proximity is the source of the signal in Alpha formats.)

Experiment [2] relates to p-IKKα levels in L363 (NIK translocated multiple myeloma) cells. As to the kind of experiment: Effect of compounds on p-IKKα levels in L363 cells (AlphaLISA SureFire Ultra). The format is cell-based, human. The note with it: Homo sapiens, L-363, 6 h, BAFF stimulated, MG132, 6 h, average of values, read-out: Assay 2 IC50. A digest of the protocol: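 Inhibition of p-IKKα (Ser176/180) read by AlphaLISA after 6 h, 37 °C compound exposure (11-point 1:3 series, 0.3% DMSO) of L363 cells pre-incubated overnight ± 250 ng/ml BAFF and plated ± BAFF ± 10 μM MG132. Normalised to BAFF/MG132/DMSO and unstimulated controls; IC50 by sigmoidal fitting, duplicates.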

recombinant human NF-kappaB-inducing kinase (NIK/MAP3K14), sequence (Q99558 whole entry): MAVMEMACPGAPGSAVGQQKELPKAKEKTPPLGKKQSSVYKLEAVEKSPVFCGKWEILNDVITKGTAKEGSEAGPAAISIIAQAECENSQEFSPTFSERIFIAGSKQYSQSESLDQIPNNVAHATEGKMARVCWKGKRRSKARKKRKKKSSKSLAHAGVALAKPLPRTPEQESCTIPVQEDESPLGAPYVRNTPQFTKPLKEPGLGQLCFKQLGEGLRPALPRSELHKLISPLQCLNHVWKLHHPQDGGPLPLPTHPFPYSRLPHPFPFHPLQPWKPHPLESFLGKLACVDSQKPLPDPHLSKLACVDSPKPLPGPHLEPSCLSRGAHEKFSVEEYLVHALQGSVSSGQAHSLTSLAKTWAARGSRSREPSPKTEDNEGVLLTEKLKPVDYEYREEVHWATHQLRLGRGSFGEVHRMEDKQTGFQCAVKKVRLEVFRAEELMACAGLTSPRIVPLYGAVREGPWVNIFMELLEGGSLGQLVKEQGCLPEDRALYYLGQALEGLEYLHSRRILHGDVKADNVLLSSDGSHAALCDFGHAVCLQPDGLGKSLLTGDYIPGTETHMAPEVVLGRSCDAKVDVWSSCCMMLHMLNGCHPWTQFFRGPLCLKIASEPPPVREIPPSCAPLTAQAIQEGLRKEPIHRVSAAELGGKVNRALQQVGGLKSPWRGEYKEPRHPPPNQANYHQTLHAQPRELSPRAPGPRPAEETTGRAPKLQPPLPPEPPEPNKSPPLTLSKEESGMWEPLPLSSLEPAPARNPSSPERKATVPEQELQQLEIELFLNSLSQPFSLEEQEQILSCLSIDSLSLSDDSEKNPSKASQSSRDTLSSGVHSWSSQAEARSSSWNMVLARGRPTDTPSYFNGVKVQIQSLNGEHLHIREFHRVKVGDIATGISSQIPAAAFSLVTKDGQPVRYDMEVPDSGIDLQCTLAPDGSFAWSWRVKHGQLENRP

For the compound `CC1(C)CC[C@@](O)(C#Cc2cccc(-c3ccc4ncnc(N)c4n3)c2)C1=O` [Example 131, (R)-2-[2-[3-(4-Aminopyrido[3,2-d]pyrimidin-6-yl)phenyl]ethynyl]-2-hydroxy-5,5-dimethyl-cyclopentanone], the IC50 is not above 0.5 nM in experiment [1] and 47 nM in experiment [2].
With `CC1(C)CC[C@](O)(C#Cc2cccc(-c3ccc4ncnc(N)c4n3)c2)C1=O` [Example 132, (S)-2-[2-[3-(4-Aminopyrido[3,2-d]pyrimidin-6-yl)phenyl]ethynyl]-2-hydroxy-5,5-dimethyl-cyclopentanone], the IC50 in experiment [1] worked out at 46 nM; in experiment [2] it was 730 nM.
On to `CN1CC[C@@](O)(C#Cc2cccc(-c3ncc4c(CN5CCCC5)cnc(N)c4n3)c2)C1=O` [Example 133, (R)-3-[2-[3-[8-Amino-5-(pyrrolidin-1-ylmethyl)pyrido[3,4-d]pyrimidin-2-yl]phenyl]ethynyl]-3-hydroxy-1-methyl-pyrrolidin-2-one], for which the IC50 in experiment [1] came out at 6.8 nM; in experiment [2], 400 nM.
The like results for `CN1CC[C@@](O)(C#Cc2cccc(-c3ncc4c(-c5cnn(CCN)c5)cnc(N)c4n3)c2)C1=O` [Example 134, (R)-3-[2-[3-[8-Amino-5-[1-(2-aminoethyl)pyrazol-4-yl]pyrido[3,4-d]pyrimidin-2-yl]phenyl]ethynyl]-3-hydroxy-1-methyl-pyrrolidin-2-one] were, in that order, not above 0.5 nM and 150 nM.
As for `CN(C)Cc1cnc(N)c2nc(-c3cccc(C#C[C@]4(O)CCN(C)C4=O)c3)ncc12` [Example 135, (R)-3-[2-[3-[8-Amino-5-(dimethylaminomethyl)pyrido[3,4-d]pyrimidin-2-yl]phenyl]ethynyl]-3-hydroxy-1-methyl-pyrrolidin-2-one], the IC50 in experiment [1] was 5.7 nM; in experiment [2], 140 nM.
The like results for `Cc1nc(-c2cccc(C#C[C@]3(O)CCN(C)C3=O)c2)cc2c(N)ncnc12` [Example 136, (R)-3-[2-[3-(4-Amino-8-methyl-pyrido[3,4-d]pyrimidin-6-yl)phenyl]ethynyl]-3-hydroxy-1-methyl-pyrrolidin-2-one] were, in that order, 0.7 nM and 60 nM.
On to `C[C@@](O)(C#Cc1cccc(-c2ncc3ncnc(N)c3n2)c1)c1nccs1` [Example 137, (R)-4-(3-(8-Aminopyrimido[5,4-d]pyrimidin-2-yl)phenyl)-2-(thiazol-2-yl)but-3-yn-2-ol], for which the IC50 is not above 0.5 nM in experiment [1] and 9.3 nM in experiment [2].
The like results for `Cc1cnc(N)c2nc(-c3cccc(C#C[C@]4(O)CCN(C)C4=O)c3)nc(C)c12` [Example 138, (R)-3-((3-(8-Amino-4,5-dimethylpyrido[3,4-d]pyrimidin-2-yl)phenyl)ethynyl)-3-hydroxy-1-methylpyrrolidin-2-one] were, in that order, not above 0.5 nM and 9.6 nM.
Consider `COc1ccc(C#C[C@]2(O)CCN(C)C2=O)cc1-c1ccc2ncnc(N)c2n1` [Example 139, (R)-3-((3-(4-Aminopyrido[3,2-d]pyrimidin-6-yl)-4-methoxyphenyl)ethynyl)-3-hydroxy-1-methylpyrrolidin-2-one], for which the half-inhibitory concentration (IC50) in experiment [1] came out at 2.9 nM; in experiment [2], 22 nM.
The like results for `CN1CC[C@@](O)(C#Cc2cccc(-c3ncc4c(-c5cnn(CCCC#N)c5)cnc(N)c4n3)c2)C1=O` [Example 140, (R)-4-[4-[8-Amino-2-[3-[2-(3-hydroxy-1-methyl-2-oxo-pyrrolidin-3-yl)ethynyl]phenyl]pyrido[3,4-d]pyrimidin-5-yl]pyrazol-1-yl]butanenitrile] were, in that order, not above 0.5 nM and 6.2 nM.
On the same counts, the results for `CN1CC[C@@](O)(C#Cc2cccc(-c3cc4c(N)ncnc4s3)c2)C1=O` [Example 141, (R)-3-((3-(4-Aminothieno[2,3-d]pyrimidin-6-yl)phenyl)ethynyl)-3-hydroxy-1-methylpyrrolidin-2-one] are 16 nM and 2450 nM.
Regarding `CN1CC[C@@](O)(C#Cc2cccc(-c3nc4c(N)ncnc4o3)c2)C1=O` [Example 142, (R)-3-((3-(7-Aminooxazolo[5,4-d]pyrimidin-2-yl)phenyl)ethynyl)-3-hydroxy-1-methylpyrrolidin-2-one], the IC50 in experiment [1] is 350 nM; in experiment [2], more than 5000 nM.
On the same counts, the results for `CN1CC[C@@](O)(C#Cc2cccc(-c3nc4c(N)ncnc4n3C)c2)C1=O` [Example 143, (R)-3-((3-(6-Amino-9-methyl-9H-purin-8-yl)phenyl)ethynyl)-3-hydroxy-1-methylpyrrolidin-2-one] are 420 nM and more than 5000 nM.
On the same counts, the results for `Nc1ncnc2cnc(-c3cccc(C#C[C@]4(O)CCc5cccnc54)c3)nc12` [Example 144, (R)-7-((3-(8-Aminopyrimido[5,4-d]pyrimidin-2-yl)phenyl)ethynyl)-6,7-dihydro-5H-cyclopenta[b]pyridin-7-ol] are 2290 nM and more than 5000 nM.
For `CN1CC[C@@](O)(C#Cc2cccc(-c3ncc4c(CN5CCCCC5)cnc(N)c4n3)c2)C1=O` [Example 145, (R)-3-[2-[3-[8-Amino-5-(1-piperidylmethyl)pyrido[3,4-d]pyrimidin-2-yl]phenyl]ethynyl]-3-hydroxy-1-methyl-pyrrolidin-2-one], the concentration for half-maximal inhibition (IC50) worked out at 3.6 nM in experiment [1] and 280 nM in experiment [2].
On to `Nc1ncnc2cnc(-c3cccc(C#C[C@]4(O)CCn5ccnc54)c3)nc12` [Example 146, (R)-7-[2-[3-(4-Aminopyrimido[5,4-d]pyrimidin-6-yl)phenyl]ethynyl]-5,6-dihydropyrrolo[1,2-a]imidazol-7-ol], for which the IC50 in experiment [1] is not above 0.5 nM; in experiment [2], 2.7 nM.
With `CN1CC[C@@](O)(C#Cc2cccc(-c3ncc4c(-c5ccc(C(F)(F)F)nc5)cnc(N)c4n3)c2)C1=O` [Example 147, (R)-3-[2-[3-[8-Amino-5-[6-(trifluoromethyl)-3-pyridyl]pyrido[3,4-d]pyrimidin-2-yl]phenyl]ethynyl]-3-hydroxy-1-methyl-pyrrolidin-2-one], the IC50 in experiment [1] was not above 0.5 nM; in experiment [2], 14 nM.
`Cc1nc(N)c2nc(-c3cccc(C#C[C@]4(O)CCN(C)C4=O)c3)cnc2n1` [Example 148, (R)-3-[2-[3-(4-Amino-2-methyl-pteridin-6-yl)phenyl]ethynyl]-3-hydroxy-1-methyl-pyrrolidin-2-one]: the IC50 in experiment [1] came out at 1.4 nM; in experiment [2], 370 nM.
On the same counts, the results for `[2H]c1nc(N)c2nc(-c3cc(C#C[C@]4(O)CCN(C)C4=O)ccc3C)ccc2n1` [Example 149, (R)-3-((3-(4-Aminopyrido[3,2-d]pyrimidin-6-yl-2-d)-4-methylphenyl)ethynyl)-3-hydroxy-1-methylpyrrolidin-2-one] are not above 0.5 nM and 17 nM.
As for `Cc1nc(N)c2nc(-c3cc(C#C[C@]4(O)CCN(C)C4=O)ccc3C)ccc2n1` [Example 150, (R)-3-((3-(4-Amino-2-methylpyrido[3,2-d]pyrimidin-6-yl)-4-methylphenyl)ethynyl)-3-hydroxy-1-methylpyrrolidin-2-one], the values for the IC50 in experiment [1] and in experiment [2] were 4.7 nM and 320 nM, respectively.
On the same counts, the results for `CN1CC[C@@](O)(C#Cc2cccc(-c3ncc4c(CC(C)(C)C)cnc(N)c4n3)c2)C1=O` [Example 151, (R)-3-((3-(8-Amino-5-neopentylpyrido[3,4-d]pyrimidin-2-yl)phenyl)ethynyl)-3-hydroxy-1-methylpyrrolidin-2-one] are 0.7 nM and 28 nM.
